Laboratory results taken from patent US11753445B2, “Therapeutic peptides” (COHBAR, INC., priority 2016, dated 2023).
Peptide text beside a SMILES is read from it.

How the values were obtained:
[1] = system: 3T3-L1 Adipocytes; assay: Free fatty acid levels in cultured mouse 3T3-L1 adipocytes, isoproterenol stimulated (Example 2); format: cell-based; conditions: test peptides 25 μM; isoproterenol 1 nM
Outline: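 Release of free fatty acids, read at 540 nm, was stimulated with 1 nM isoproterenol for 3 h in mouse 3T3-L1 adipocytes (12–17 days of differentiation). Cells were pre-exposed to 25 μM peptide for 18–20 h plus 1 h, with peptide kept in during stimulation. Values are background-subtracted and normalised to isoproterenol alone.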

[2] = system: Diet Induced Obese (DIO) mice; assay: Body weight, blood glucose and fat mass in Diet Induced Obese mice, 10 days (Example 6); format: in vivo, Male C57BL/6 mice; conditions: male DIO mice; 10 days twice daily intraperitoneal 15 mg/kg; N = 8; mean
Method: Animals were randomized to treatment groups based on blood glucose levels and body weight. The peptides of the invention were administered to two groups of male DIG mice once or twice daily by subcutaneous or intraperitoneal injection at a dose of 15 mg/kg/dose for 10 days (N=8 animals per treatment group). An additional group of male DIG mice (n=8) received vehicle (water or saline) alone. Body weight, blood glucose levels and food intake were monitored. Body mass distribution (fat vs lean) was determined by quantitative whole body NMR prior to dosing and at the end of dosing.

[3] = Stability in mouse plasma, peptides 10 uM (Example 15); format: in vitro ADME; conditions: mouse plasma 37° C., peptide 10 uM; for remaining at 0.25 h, 10 uM / remaining at 0.5 h, 10 uM / remaining at 1 h, 10 uM / remaining at 2 h, 10 uM / remaining at 3 h, 10 uM: pooled mouse plasma; for remaining at 0.25 h, 10 uM: 15 min, read-out: % Remaining at Each Time Point: 15 min; for remaining at 0.5 h, 10 uM: 30 min, read-out: % Remaining at Each Time Point: 30 min; for remaining at 1 h, 10 uM: 60 min, read-out: % Remaining at Each Time Point: 60 min; for remaining at 2 h, 10 uM: 120 min, read-out: % Remaining at Each Time Point: 120 min; for remaining at 3 h, 10 uM: 180 min, read-out: % Remaining at Each Time Point: 180 min
Method: (§1) Peptides (10 uM) were incubated in pooled mouse plasma at 37° C. and samples were removed and immediately analyzed for the concentration of intact peptide by LC/MS/MS over the course of 3 hours. The percent of peptide remaining in plasma at each time point was calculated relative to the initial peak area (Table 13).

[4] = Stability in mouse plasma, peptides 100 uM (Example 14); format: in vitro ADME; conditions: mouse plasma 37° C., peptide 100 uM; for remaining at 0.25 h, 100 uM / remaining at 0.5 h, 100 uM / remaining at 1 h, 100 uM / remaining at 2 h, 100 uM / remaining at 3 h, 100 uM: pooled mouse plasma; for remaining at 0.25 h, 100 uM: 15 min, read-out: % Remaining at Each Time Point: 15 min; for remaining at 0.5 h, 100 uM: 30 min, read-out: % Remaining at Each Time Point: 30 min; for remaining at 1 h, 100 uM: 60 min, read-out: % Remaining at Each Time Point: 60 min; for remaining at 2 h, 100 uM: 120 min, read-out: % Remaining at Each Time Point: 120 min; for remaining at 3 h, 100 uM: 180 min, read-out: % Remaining at Each Time Point: 180 min
Method: as §1, with “(100” for “(10”, “12).” for “13).”

[5] = system: Human Primary Adipocytes; assay: Free fatty acid levels in cultured human primary adipocytes, forskolin stimulated (Example 5); format: cell-based; conditions: test peptides 25 μM; forskolin 1 μM
Method: Human primary adipocytes were seeded at 5,000-100,000 cells per well on 96-well, 48-well, or 24-well plate in Pre-adipocyte Medium (Zen-Bio, Durham, N.C.) and grown to confluence at 37° C. in a humidified atmosphere of 5% CO2/95% air. Two days after confluence, cells were placed in Adipocyte Differentiation Medium (Zen-Bio, Durham, N.C.) and cultured for three additional days at 37° C. in a humidified atmosphere of 5% CO2/95% air. The culture media was then replaced with Adipocyte Maintenance Medium (Zen-Bio) and the cells were maintained for an additional 11-21 days at 37° C. in a humidified atmosphere of 5% CO2/95% air with partial medium replacement every other day. Following 14-24 days of differentiation, test peptides were added at a final concentration of 25 μM and incubated for 18-20 hours in Adipocyte Maintenance Medium at 37° C. in a humidified atmosphere of 5% CO2/95%. After 18-20 hours, the media was exchanged with fresh Adipocyte Maintenance Medium containing test peptides and incubated for 1 h at 37° C. in a humidified atmosphere of 5% CO2/95%. After 1 h media was exchanged with Assay Buffer (Zen-Bio) containing forskolin (1 μM) (added to all samples except untreated controls) and test peptides. Cells were incubated for a further 3 hours at 37° C. in a humidified atmosphere of 5% CO2/95%. Free fatty acid concentrations in the media were determined using a Free Fatty Acid Assay Kit (Zen-Bio) according to the manufacturer's instructions using a plate reader (540 nm). Absorbance values were corrected for untreated background and expressed relative to forskolin treated cells. Treatment with forskolin (1 μM) alone was used as the free fatty acid level stimulatory control. The relative standard deviation of the forskolin control was <20%. […] Free fatty acid levels for insulin (100 nM) treatment were <8% of the forskolin control value.

[6] = system: 3T3-L1 Adipocytes; assay: Free fatty acid levels in cultured mouse 3T3-L1 adipocytes, forskolin stimulated (Example 3); format: cell-based; conditions: test peptides 25 μM; forskolin 1 μM
Method: Mouse 3T3-L1 cells were seeded at 1,000-20,000 cells per well on 96-well, 48-well, or 24-well plates in Pre-adipocyte Medium (Zen-Bio, Durham, N.C.) and grown to confluence at 37° C. in a humidified atmosphere of 5% CO2/95% air. Two days after confluence, cells were placed in Adipocyte Differentiation Medium (Zen-Bio, Durham, N.C.) and cultured for three additional days at 37° C. in a humidified atmosphere of 5% CO2/95% air. The culture media was then replaced with Adipocyte Maintenance Medium (Zen-Bio) and the cells were maintained for an additional 9-14 days at 37° C. in a humidified atmosphere of 5% CO2/95% air with partial medium replacement every other day. Following 12-17 days of differentiation, test peptides were added at a final concentration of 25 μM and incubated for 18-20 hours in Adipocyte Maintenance Medium at 37° C. in a humidified atmosphere of 5% CO2/95%. After 18-20 hours, the media was exchanged with fresh Adipocyte Maintenance Medium containing test peptides and incubated for 1 h at 37° C. in a humidified atmosphere of 5% CO2/95%. After 1 h media was exchanged with Assay Buffer (Zen-Bio) containing forskolin (1 μM) (added to all samples except untreated controls) and test peptides. Cells were incubated for a further 3 hours at 37° C. in a humidified atmosphere of 5% CO2/95%. Free fatty acid concentrations in the media were determined using a Free Fatty Acid Assay Kit (Zen-Bio) according to the manufacturer's instructions using a plate reader (540 nm). Absorbance values were corrected for untreated background and expressed relative to forskolin treated cells. Treatment with forskolin (1 μM) alone was used as the free fatty acid level stimulatory control. The relative standard deviation of the forskolin control was <10%. […] Free fatty acid levels for insulin (100 nM) treatment were <9% of the forskolin control value.

Molecule | % Remaining at Each Time Point: 0 min [3] [%] | remaining at 0.25 h, 10 uM [3] [%] | remaining at 0.5 h, 10 uM [3] [%] | remaining at 1 h, 10 uM [3] [%] | remaining at 2 h, 10 uM [3] [%] | remaining at 3 h, 10 uM [3] [%] | % Remaining at Each Time Point: 0 min [4] [%] | remaining at 0.25 h, 100 uM [4] [%] | remaining at 0.5 h, 100 uM [4] [%] | remaining at 1 h, 100 uM [4] [%] | remaining at 2 h, 100 uM [4] [%] | remaining at 3 h, 100 uM [4] [%] | Free Fatty Acid Levels in 3T3-L1 Adipocytes Expressed as a Percent of Isoproterenol Control: Percent of Control Value [1] [%] | Difference from Vehicle Control: Decrease from Baseline in Blood Glucose [2] [mg/dL] | Difference from Vehicle Control: Decrease from Baseline in Body Weight (%) [2] [%] | Difference from Vehicle Control: Decrease from Baseline in Fat Mass [2] [g] | Free Fatty Acid Levels in Human Primary Adipocytes Expressed as a Percent of Forskolin Control: Percent of Control Value [5] [%] | Free Fatty Acid Levels in 3T3-L1 Adipocytes Expressed as a Percent of Forskolin Control: Percent of Control Value [6] [%]
H-MRWQEMGYIFYPRN-OH [compound 203] | – | – | – | – | – | – | – | – | – | – | – | – | 52.9 | – | – | – | 75.2 | 54.5
H-MRWQEMGYIFYPRQ-OH [compound 204] | – | – | – | – | – | – | – | – | – | – | – | – | 38.8 | – | – | – | 94.3 | 57.3
H-MRWQEMGYIFYPRQLR-OH [compound 214] | – | – | – | – | – | – | – | – | – | – | – | – | 52.3 | – | – | – | 89.9 | 50.2
H-RWQEMNYIAEPR-OH [compound 251] | 100 | 70.6 | 47.5 | 44.4 | 38.1 | 30.2 | – | – | – | – | – | – | 83.7 | -34.3 | −0.55 | 0.02 | – | –

The next lines start with results.

% Remaining at Each Time Point: 0 min [3] [%] | remaining at 0.25 h, 10 uM [3] [%] | remaining at 0.5 h, 10 uM [3] [%] | remaining at 1 h, 10 uM [3] [%] | remaining at 2 h, 10 uM [3] [%] | remaining at 3 h, 10 uM [3] [%] | % Remaining at Each Time Point: 0 min [4] [%] | remaining at 0.25 h, 100 uM [4] [%] | remaining at 0.5 h, 100 uM [4] [%] | remaining at 1 h, 100 uM [4] [%] | remaining at 2 h, 100 uM [4] [%] | remaining at 3 h, 100 uM [4] [%] | Molecule | Free Fatty Acid Levels in 3T3-L1 Adipocytes Expressed as a Percent of Isoproterenol Control: Percent of Control Value [1] [%] | Difference from Vehicle Control: Decrease from Baseline in Blood Glucose [2] [mg/dL] | Difference from Vehicle Control: Decrease from Baseline in Body Weight (%) [2] [%] | Difference from Vehicle Control: Decrease from Baseline in Fat Mass [2] [g] | Free Fatty Acid Levels in Human Primary Adipocytes Expressed as a Percent of Forskolin Control: Percent of Control Value [5] [%] | Free Fatty Acid Levels in 3T3-L1 Adipocytes Expressed as a Percent of Forskolin Control: Percent of Control Value [6] [%]
100 | 59.3 | 36.1 | 11.1 | 0.98 | 0.28 | – | – | – | – | – | – | CC[C@H](C)[C@H](NC(=O)[C@H](Cc1ccc(O)cc1)NC(=O)CNC(=O)[C@H](CCSC)NC(=O)[C@H](CCC(=O)O)NC(=O)[C@H](CCC(N)=O)NC(=O)[C@H](Cc1c[nH]c2ccccc12)NC(=O)[C@H](CCCNC(=N)N)NC(=O)[C@@H](N)CCSC)C(=O)N[C@@H](Cc1ccccc1)C(=O)N[C@@H](Cc1ccc(O)cc1)C(=O)N1CCC[C@H]1C(=O)N[C@@H](CCCNC(=N)N)C(=O)N[C@H](C)C(=O)N[C@@H](CC(C)C)C(=O)N[C@@H](CCCNC(=N)N)C(=O)O [compound 149] (HELM PEPTIDE1{M.R.W.Q.E.M.G.Y.I.F.Y.P.R.[dA].L.R}$$$$V2.0) | 38.6 | -11.4 | −5.22 | -2.13 | – | –
100 | 98.8 | 96.8 | 89.5 | 84.3 | 80.7 | – | – | – | – | – | – | H-ERWQEAGYIAYPR-OH [compound 241] | 50.9 | -7.00 | −1.49 | -0.34 | – | –
– | – | – | – | – | – | 100 | 18.3 | 17.5 | 11.5 | 5.25 | 2.38 | H-MRWQEAGYIFYPRKLR-OH [compound 11] | 78.8 | -27.6 | −8.81 | -5.85 | – | –
100 | 59.4 | 33.6 | 6.43 | 0.44 | 0 | – | – | – | – | – | – | H-MRWQEEGYIFYPRKLR-OH [compound 172] | 54.2 | -31.5 | −2.48 | -0.77 | – | –
100 | 46 | 26.8 | 11.9 | 11.3 | 7.35 | – | – | – | – | – | – | H-MRWQEMGYIFYARKLR-OH [compound 17] | – | -2.63 | −2.87 | -0.65 | – | –
– | – | – | – | – | – | 100 | 30.8 | 24 | 19.4 | 9.02 | 4.53 | H-MRWQEMGYIFYPAKLR-OH [compound 18] | – | 1.52 | −0.80 | -0.65 | 101 | –
– | – | – | – | – | – | 100 | 18.8 | 18.2 | 8.52 | 1.82 | 0.22 | H-MRWQEMGYIFYPRALR-OH [compound 19] | 66.0 | -14.5 | −3.27 | -2.34 | 113 | –
